Laboratory results reported in ChEMBL document CHEMBL1201862, “PubChem BioAssay data set” (2004).
One block for each compound: values may come before it. Calls of active or inactive are those of the source.

Legend:
[1] = target: T1, Microphthalmia-associated transcription factor (Homo sapiens, UniProt O75030); test: TRPM1 promoter luciferase signal decrease, dose response, MITF inhibitor project, cell-based, SK-MEL-5, cherry-picked, set 3 (AID 493073); type: functional
T1 sequence (O75030 whole entry): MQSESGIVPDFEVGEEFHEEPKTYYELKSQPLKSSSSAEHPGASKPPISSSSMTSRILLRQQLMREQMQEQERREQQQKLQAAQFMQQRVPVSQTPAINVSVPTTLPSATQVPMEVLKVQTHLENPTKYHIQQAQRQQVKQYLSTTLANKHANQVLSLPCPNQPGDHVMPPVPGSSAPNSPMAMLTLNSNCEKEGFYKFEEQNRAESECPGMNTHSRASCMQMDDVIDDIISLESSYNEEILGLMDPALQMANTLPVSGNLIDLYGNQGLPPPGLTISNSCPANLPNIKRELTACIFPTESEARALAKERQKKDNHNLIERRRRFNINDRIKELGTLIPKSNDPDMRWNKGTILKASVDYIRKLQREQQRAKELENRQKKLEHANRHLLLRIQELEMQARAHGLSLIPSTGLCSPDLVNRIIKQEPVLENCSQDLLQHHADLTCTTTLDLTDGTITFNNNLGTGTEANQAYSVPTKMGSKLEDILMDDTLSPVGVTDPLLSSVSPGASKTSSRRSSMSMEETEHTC

A-375 = test: MITF: Counter assay: A375 proliferation Measured in Cell-Based System Using Plate Reader - 2084-03_Inhibitor_Dose_DryPowder_Activity. [Related pubchem assays (depositor defined):AID488944]; type: functional; conditions: Homo sapiens
[2] = target: T2, Probable nicotinate-nucleotide adenylyltransferase (Staphylococcus aureus (strain N315), UniProt P65502); type: functional, Staphylococcus aureus subsp. aureus N315;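 on IC50 Mean: confirmatory dose-response retesting of NadD inhibitor hits first found in an ultra-high-throughput screen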
[3] = target: T2, Probable nicotinate-nucleotide adenylyltransferase; type: functional, Staphylococcus aureus subsp. aureus N315; conditions: read-out: IC50_Mean
Vero = Vero cell cytotoxicity, cytotoxicity control for flavivirus capping enzyme inhibitors (AID 588742); type: functional; conditions: Chlorocebus sabaeus
[4] = target: T3, Low molecular weight phosphotyrosine protein phosphatase (Homo sapiens, UniProt P24666); type: functional; conditions: read-out: IC50_Mean
T3 sequence (P24666 whole entry): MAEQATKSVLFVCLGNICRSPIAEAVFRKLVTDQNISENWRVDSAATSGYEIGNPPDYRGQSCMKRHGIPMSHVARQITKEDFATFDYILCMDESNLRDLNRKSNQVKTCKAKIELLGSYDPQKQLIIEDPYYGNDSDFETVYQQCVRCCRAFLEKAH

Genome polyprotein = Genome polyprotein (dengue virus type 2, UniProt P29990); test: Dengue-2 NS5 methyltransferase inhibitors, primary screen, biochemical, confirmation dose response (AID 588689); type: functional
NS3 = NS3 (Hepatitis C virus, UniProt A3EZJ3); test: PubChem AID 2173; design: species or system Hepacivirus hominis
[5] = target: T3, Low molecular weight phosphotyrosine protein phosphatase; type: functional; conditions: read-out: IC50_Mean; remark: listed apart in the source
[6] = target: NAD-dependent protein deacylase sirtuin-5, mitochondrial (Homo sapiens, UniProt Q9NXA8); test: SIRT5 desuccinylase inhibitors, dose response, biochemical, fluorescence imaging, cherry-pick, set 5 (AID 720591);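 further: desuccinylation of succinyl peptide AMC substrate read as fluorescence after trypsin release; potency of inhibitors that lower fluorescence and may act on trypsin instead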
[7] = Late-stage probe development counterscreen for inhibitors of the Hepatitis C Virus non-structural protein 3 helicase (NS3): luminescence-based cell-based dose response assay to determine whether compounds that inhibit replication of HCV RNA replicon are cytotoxic. [Related pubchem assays (depositor defined):AID1800, AID1830, AID1845, AID1943, AID1945, AID2172, AID2173, AID2474, AID2476]; type: functional
Candida albicans = test: growth inhibition of azole-resistant C. albicans, dose response, CaCi-8 strain, Alamar Blue, dry powder, set 2 (AID 488909); type: functional, organism-based
[8] = ZM109 Env clade C HIV-1 fusion inhibitors, dose response, HeLa effector, CEM target cells, luciferase, cherry-pick (AID 652058); type: functional, cell-based
Escherichia coli [9] = test: microbe, parasite or virus in culture
[10] = inhibitors of HIV Env-driven cell fusion, dose response, cherry-pick (AID 652057); type: functional, cell-based
[11] = system: Streptococcus sp. 'group A'; test: growth inhibition of control SK(-) GAS strain, dose response, counter-screen for streptokinase expression inhibitor project, luminescence, kanamycin, BacTiterGlo, confirmation (AID 1900); type: functional, organism-based
Escherichia coli [12] = test: microbe, parasite or virus in culture; remark: listed apart in the source
[13] = target: Induced myeloid leukemia cell differentiation protein Mcl-1 (Homo sapiens, UniProt Q07820); test: MCL1-BIM BH3 interaction inhibitors, dose response, biochemical, fluorescence polarization, BIM-BH3 peptide, 1536-well (AID 2217)
Streptococcus = test: Group A Streptococcus viability loss, dose response, counter-screen for streptokinase expression inhibitor project, luminescence, BacTiterGlo (AID 1915); type: functional, organism-based;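 further: potency for reduction of bacterial viability or growth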
Bcl-2-like protein 1 = Bcl-2-like protein 1 (Homo sapiens, UniProt Q07817); test: BCL-XL inhibitors, dose response, selectivity assay for MCL1 inhibitor project, biochemical, fluorescence polarization, 1536-well (AID 2218)
Salmon testes DNA = test: DNA intercalators displacing acridine orange, dose response, artefact control for KSHV LANA DNA-binding inhibitor project, biochemical, fluorescence polarization, cherry-picked samples, set 2 (AID 504727); design: species or system Salmonidae
[14] = inhibitors of clade B AD8 Env fusion, dose response, cell-based, cherry-pick (AID 652062); type: functional;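 further: luciferase signal from cell-cell fusion driven by HIV-1 clade B AD8 Env; potency is for inhibitors of fusion seen as a drop in luminescence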
ORF 73 = target: T4, ORF 73 (Human herpesvirus 8, UniProt O40947); test: inhibitors of C-LANA binding to LBS DNA, dose response, biochemical, fluorescence polarization, cherry-picked samples (AID 504725); design: species or system Human gammaherpesvirus 8;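 further: fluorescence polarization of a labeled DNA duplex reporting LANA DNA binding; potency is for inhibitors that block LANA binding to the DNA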
T4 sequence (O40947 whole entry): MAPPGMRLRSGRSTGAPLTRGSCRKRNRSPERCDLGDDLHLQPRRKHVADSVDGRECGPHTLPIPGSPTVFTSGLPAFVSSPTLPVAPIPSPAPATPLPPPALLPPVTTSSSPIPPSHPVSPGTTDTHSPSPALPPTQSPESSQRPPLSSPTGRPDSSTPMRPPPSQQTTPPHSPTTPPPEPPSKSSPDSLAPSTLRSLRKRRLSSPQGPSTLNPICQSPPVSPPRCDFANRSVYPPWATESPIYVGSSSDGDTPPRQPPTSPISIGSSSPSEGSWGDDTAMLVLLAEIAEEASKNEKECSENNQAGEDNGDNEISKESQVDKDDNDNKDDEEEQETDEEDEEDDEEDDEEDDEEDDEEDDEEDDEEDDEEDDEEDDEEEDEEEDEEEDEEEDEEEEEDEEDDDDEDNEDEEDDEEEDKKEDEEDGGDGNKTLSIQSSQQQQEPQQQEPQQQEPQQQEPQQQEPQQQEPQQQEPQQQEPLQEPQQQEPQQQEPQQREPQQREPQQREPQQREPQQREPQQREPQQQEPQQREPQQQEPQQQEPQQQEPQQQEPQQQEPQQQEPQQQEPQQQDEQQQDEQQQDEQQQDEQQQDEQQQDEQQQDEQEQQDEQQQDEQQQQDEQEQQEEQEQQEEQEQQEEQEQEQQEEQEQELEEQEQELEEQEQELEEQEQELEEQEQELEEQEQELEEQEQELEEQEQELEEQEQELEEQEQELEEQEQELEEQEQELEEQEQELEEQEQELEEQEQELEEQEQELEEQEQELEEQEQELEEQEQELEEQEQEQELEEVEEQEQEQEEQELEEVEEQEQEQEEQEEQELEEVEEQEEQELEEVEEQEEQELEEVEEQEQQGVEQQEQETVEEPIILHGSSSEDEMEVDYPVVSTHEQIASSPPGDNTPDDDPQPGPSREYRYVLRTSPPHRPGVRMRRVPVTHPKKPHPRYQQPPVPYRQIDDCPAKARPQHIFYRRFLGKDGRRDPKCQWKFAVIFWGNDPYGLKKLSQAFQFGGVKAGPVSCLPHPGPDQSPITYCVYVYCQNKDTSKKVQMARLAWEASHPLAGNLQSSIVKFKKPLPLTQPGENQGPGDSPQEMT

[15] = off-target signal loss in HeLa-CEM21 co-culture – HeLa F-luc CTL cells, cherry-picked, counter-screen for HIV-1 Env fusion inhibitor project, dose response (AID 652040); type: functional, cell-based;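 further: potency for signal decrease marking cytotoxic or nonspecific inhibition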
[16] = target: T5, Rac GTPase-activating protein 1 (Homo sapiens, UniProt Q9H0H5); test: MgcRacGAP GTPase-activating activity inhibitors, confirmation, biochemical, ADP Hunter fluorescence, primary and confirmatory (AID 624330); type: functional
T5 sequence (Q9H0H5 whole entry): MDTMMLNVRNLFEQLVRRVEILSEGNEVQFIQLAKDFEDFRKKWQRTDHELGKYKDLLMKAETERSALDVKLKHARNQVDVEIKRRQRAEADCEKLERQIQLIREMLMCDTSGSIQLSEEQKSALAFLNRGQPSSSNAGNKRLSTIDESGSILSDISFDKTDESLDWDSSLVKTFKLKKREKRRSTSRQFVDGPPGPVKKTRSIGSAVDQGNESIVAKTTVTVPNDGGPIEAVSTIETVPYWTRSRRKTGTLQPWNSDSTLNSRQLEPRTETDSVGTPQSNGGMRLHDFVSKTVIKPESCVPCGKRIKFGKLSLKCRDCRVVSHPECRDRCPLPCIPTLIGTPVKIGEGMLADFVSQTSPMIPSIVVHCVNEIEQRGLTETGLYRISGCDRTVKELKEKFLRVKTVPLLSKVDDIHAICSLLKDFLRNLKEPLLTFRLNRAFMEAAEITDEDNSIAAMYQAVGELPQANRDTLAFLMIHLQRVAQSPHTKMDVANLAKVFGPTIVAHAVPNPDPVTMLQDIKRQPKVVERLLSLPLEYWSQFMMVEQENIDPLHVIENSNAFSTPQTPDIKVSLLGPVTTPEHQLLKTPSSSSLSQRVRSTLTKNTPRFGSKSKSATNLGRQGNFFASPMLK

[17] = THP-1 cell cytotoxicity, dose response, cytotoxicity control for Vif-APOBEC3G degradation inhibitor project, THP-1 cells (AID 1117359); type: functional; conditions: Human immunodeficiency virus 1, THP-1

Chain of NS3 (A3EZJ3 whole entry): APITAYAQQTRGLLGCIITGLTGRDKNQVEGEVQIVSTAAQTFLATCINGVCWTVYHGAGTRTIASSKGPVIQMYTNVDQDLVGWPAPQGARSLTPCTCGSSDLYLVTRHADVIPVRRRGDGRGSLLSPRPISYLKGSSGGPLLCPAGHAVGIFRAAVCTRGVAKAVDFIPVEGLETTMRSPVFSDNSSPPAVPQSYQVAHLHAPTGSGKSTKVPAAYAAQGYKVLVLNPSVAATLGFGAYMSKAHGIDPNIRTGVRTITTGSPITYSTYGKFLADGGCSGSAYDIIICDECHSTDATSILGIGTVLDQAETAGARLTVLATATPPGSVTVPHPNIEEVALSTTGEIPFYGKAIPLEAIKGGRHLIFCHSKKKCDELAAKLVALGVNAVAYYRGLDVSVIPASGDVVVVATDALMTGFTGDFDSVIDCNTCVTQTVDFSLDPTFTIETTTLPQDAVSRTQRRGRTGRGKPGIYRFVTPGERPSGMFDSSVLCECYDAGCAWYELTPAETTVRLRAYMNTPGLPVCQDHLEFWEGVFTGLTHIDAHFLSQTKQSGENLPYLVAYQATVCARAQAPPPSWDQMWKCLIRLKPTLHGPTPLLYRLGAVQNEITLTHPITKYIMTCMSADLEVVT
Chain of Induced myeloid leukemia cell differentiation protein Mcl-1 (Q07820 whole entry): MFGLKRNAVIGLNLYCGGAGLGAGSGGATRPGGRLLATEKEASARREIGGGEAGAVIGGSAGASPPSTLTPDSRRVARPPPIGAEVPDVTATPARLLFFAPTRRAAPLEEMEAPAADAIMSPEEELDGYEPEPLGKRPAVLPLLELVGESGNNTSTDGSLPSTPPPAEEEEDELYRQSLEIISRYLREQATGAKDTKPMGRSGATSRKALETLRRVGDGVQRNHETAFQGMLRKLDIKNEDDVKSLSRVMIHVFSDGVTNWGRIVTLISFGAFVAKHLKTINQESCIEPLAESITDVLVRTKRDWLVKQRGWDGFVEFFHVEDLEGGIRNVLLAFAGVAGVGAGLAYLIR
Chain of Bcl-2-like protein 1 (Q07817 whole entry): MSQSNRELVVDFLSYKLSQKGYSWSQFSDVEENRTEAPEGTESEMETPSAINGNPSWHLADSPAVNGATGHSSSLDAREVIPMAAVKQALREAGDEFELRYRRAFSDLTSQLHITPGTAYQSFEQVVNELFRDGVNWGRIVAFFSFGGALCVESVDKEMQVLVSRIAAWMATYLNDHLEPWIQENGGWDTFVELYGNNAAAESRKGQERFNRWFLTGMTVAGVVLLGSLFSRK
Chain of NAD-dependent protein deacylase sirtuin-5, mitochondrial (Q9NXA8 whole entry): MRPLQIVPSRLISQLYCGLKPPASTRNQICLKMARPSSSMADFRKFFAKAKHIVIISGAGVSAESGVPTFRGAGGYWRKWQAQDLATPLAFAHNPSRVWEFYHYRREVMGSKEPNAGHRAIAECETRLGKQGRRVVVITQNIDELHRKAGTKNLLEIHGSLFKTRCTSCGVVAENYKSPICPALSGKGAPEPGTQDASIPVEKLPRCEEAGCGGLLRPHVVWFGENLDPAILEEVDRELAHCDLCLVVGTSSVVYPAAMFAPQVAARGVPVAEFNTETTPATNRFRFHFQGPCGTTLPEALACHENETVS
Chain of Genome polyprotein (P29990 2492-3391 limits assumed): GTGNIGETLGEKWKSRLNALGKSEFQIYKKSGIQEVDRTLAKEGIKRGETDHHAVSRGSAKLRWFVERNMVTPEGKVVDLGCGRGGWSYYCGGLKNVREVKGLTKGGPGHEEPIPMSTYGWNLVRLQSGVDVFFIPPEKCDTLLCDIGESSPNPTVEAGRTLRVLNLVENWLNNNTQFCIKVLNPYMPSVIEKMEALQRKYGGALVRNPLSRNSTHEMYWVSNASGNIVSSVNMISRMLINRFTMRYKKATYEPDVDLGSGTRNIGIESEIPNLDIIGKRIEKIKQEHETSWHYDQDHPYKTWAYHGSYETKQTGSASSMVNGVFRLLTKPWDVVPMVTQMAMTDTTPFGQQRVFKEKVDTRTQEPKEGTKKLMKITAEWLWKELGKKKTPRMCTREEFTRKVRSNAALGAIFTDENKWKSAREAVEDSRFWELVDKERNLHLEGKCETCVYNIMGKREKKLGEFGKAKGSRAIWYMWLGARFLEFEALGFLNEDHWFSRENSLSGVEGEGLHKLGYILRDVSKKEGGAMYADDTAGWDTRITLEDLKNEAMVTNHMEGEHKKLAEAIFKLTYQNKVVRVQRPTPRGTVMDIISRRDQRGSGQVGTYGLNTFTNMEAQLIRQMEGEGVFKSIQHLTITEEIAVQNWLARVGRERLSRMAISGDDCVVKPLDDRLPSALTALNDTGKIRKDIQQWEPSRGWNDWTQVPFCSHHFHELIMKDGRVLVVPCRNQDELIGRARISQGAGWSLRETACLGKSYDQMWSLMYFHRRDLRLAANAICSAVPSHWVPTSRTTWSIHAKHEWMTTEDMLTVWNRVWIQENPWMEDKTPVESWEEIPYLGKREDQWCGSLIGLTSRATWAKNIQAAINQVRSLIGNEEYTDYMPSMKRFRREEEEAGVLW

SMILES: CC(C)(C)c1ccc(OCCCNCc2ccccc2)cc1
AC50 [1]: 18.4 µM (active)
AC50 (A-375): 29.7 µM (active)

IC50 [2]: 8.93 µM (active)
IC50 [3]: 28.9 µM (active)
IC50 [4]: > 80 µM (inactive)
IC50 (Genome polyprotein): > 100 µM (active)
IC50 (NS3): 1.74 µM (active)
IC50 [5]: 2.98 µM (active)
AC50 [6]: > 30 µM (inactive)
SMILES: Cc1cc(N2C(=O)C(O)=C(C(=O)c3ccc(C)o3)C2c2ccc(OCc3ccccc3)cc2)no1 (configuration not stated)
CC50 (Vero): > 40 µM (active)
CC50 [7]: > 100 µM (inactive)

SMILES: COc1cccc2c(N3CCN(C(=O)c4ccc(Cl)cc4)CC3)cc(C)nc12
AC50 (Candida albicans): > 260 µM (inactive)

SMILES: CN(C)c1ccc(O)c2c1CC1CC3[C@@H](N(C)C)C(O)=C(C(N)=O)C(=O)[C@]3(O)C(O)=C1C2=O (some centres not stated)
AC50 [8]: < 0.26 µM (active)
AC50 (Escherichia coli [9]): 1.06 µM (active)
AC50 [10]: < 0.26 µM (active)
EC50 [11]: 0.079 µM (active)
AC50 (Escherichia coli [12]): 11.2 µM (active)
IC50 [13]: 9.39 µM (active)
EC50 (Streptococcus): 0.173 µM (active)
IC50 (NS3): > 109 µM (not active)
IC50 (Bcl-2-like protein 1): > 109 µM (not active)
AC50 (Salmon testes DNA): 46.2 µM (active)
AC50 [14]: < 0.26 µM (active)
AC50 (ORF 73): 25.6 µM (active)
AC50 [15]: < 0.26 µM (active)
IC50 [16]: 120 µM (active)
CC50 [17]: > 40 µM (active)
